The values below come from patent publication US8951747B2, “Method for modulating activity of T lymphocytes” (Ludwig Institute for Cancer Research, priority 2007, dated 2015).

Structures are written as SMILES.

Holding throughout (assay type): cell-based, human
For assay [1], the system named is CD8TL clone A10. The assay is described as follows: HLA-peptide tetramer staining of tetramer^low CD8TLs. As to conditions: for tetramer staining (ability to bind tetramers): tetramer^low cells, day 4 after stimulation, incubated 2 hours, o-phenantholin 30 μM, lactose 100 mM, LacNAc 1 mM, sucrose 100 nM, vs untreated cells. As to the method: Fourteen days after the stimulation, the CD8TLs were then stained with complexes of HLA-A0101 folded with SEQ ID NO: 1, prepared as described by Coulie, et al., Proc. Natl. Acad. Sci. USA, 98:10290-10295 (2001), incorporated by reference. The complexes were biotinylated and then labeled with phycoerythrin (“PE”), using known methods. Staining was accomplished by incubating CD8TLs, for 10 minutes, at room temperature, with 5 nM of tetramer, and then washing.
(§1) To test this, cells of CD8TL clone A10 were collected, on days 0 and 4, after stimulation with HLA-A1^+, MAGE-3^+ tumor cells. Mean fluorescence indices were determined for both the high and low staining populations, on days 0 and 4. […] staining was carried out, as described supra, with cells that were either incubated with no test substance, or which had been incubated for 2 hours, on day 4, with one of o-phenantholin (30 μM), a known Zn chelator, lactose, (100 mM), LacNAc (1 mM), or sucrose (100 nM). The rationale behind the incubation with lactose, LacNAc, and sucrose is explained in Example 11. A final sample was incubated with swainsonin (0.5 μM) on day 0, before the cells were stimulated.
(§2) The cells were then washed, and analyzed for all of tetramer staining, proximity of the molecules via FRET, and IFN-γ production following antigenic stimulation.

In assay [2] the test system is CD8TL clone A10. The assay is described as follows: IFN-γ production following antigenic stimulation. Particulars: for ability to release IFN-γ upon antigenic stimulation: tetramer^low cells, day 4 after stimulation, incubated 2 hours, o-phenantholin 30 μM, lactose 100 mM, LacNAc 1 mM, sucrose 100 nM, vs untreated cells. As to the method:
In addition to the experiments set forth, supra the effector capability of the T lymphocytes was tested, at various points during the period in which they were stimulated. Stimulation conditions are set forth in Example 1, supra. The effector activity was determined by contacting samples of 5000 CD8TLs with 2×10^5 HLA-A1 EBV-B cells which had been incubated for one hour with 1 μM of the peptide of SEQ ID NO: 1 at 37° C., and co-culturing the mixed sample, overnight. The amounts of IFN-γ and IL-2 resulting from the activation of the T cells were measured in the supernatants of the co-cultured cells via ELISAs.
as §1, §2

Assay [3] relates to CD8TL clone A10. The assay is described as follows: FRET analysis of TCR-CD8 proximity on tetramer^low CD8TLs. As to conditions: for FRET between TCR and CD8 (TCR-CD8 proximity): tetramer^low cells, day 4 after stimulation, incubated 2 hours, o-phenantholin 30 μM, lactose 100 mM, LacNAc 1 mM, sucrose 100 nM, vs untreated cells. The protocol: (§3) To elaborate, samples of 2×10^5 cells were washed in Hank's medium that had been supplemented with 1% human serum, and were then resuspended, in 50 μl of medium, which contained either an anti-TCRβ-PE antibody (the “donor” antibody), or an anti-CD8α-Alexa647 antibody (the “acceptor” antibody), or both. The former was diluted at 1/20 and the latter, at 1/300.
(§4) Samples were incubated for 30 minutes at 4° C., washed, and fixed with paraformaldehyde (2% w/v in PBS). Analysis was carried out on a FACS system, and transfer of fluorescence was calculated as FRET units, in accordance with Doucey, et al., J. Biol. Chem., 278:3257-3264 (2003), incorporated by reference. A FRET unit is defined as: [E3both−E3none]−[(E3A647−E3none)×(E2both/E2A647)]−[(E3PE−3none)×(E1both/E1PE)]
E1 is the fluorescence detected at 580 nm, following excitation at 488 nm. E2 is fluorescence detected at 670 nm, following excitation at 630 nm, and E3 is fluorescence detected at 670 nm following excitation at 488 nm.
After the molecules are excited at the donor level, transfer of energy from donor to acceptor happens only if the distance between two molecules is less than 10 nm, with energy transfer being measured by emission at the acceptor wavelength.
as §1, §2

The subject of assay [4] is kidney infiltrating T cells isolated from the kidney allograft. The assay is described as follows: IFN-γ production by functional kidney infiltrating T cells. As to conditions: LacNAc treatment; stimulation with allogeneic EBV-B cells or anti-CD3/CD28 beads. An excerpt: A standard depletion strategy was used to isolate CD8^+ T cells from a breast carcinoma metastasis, ovarian carcinoma ascites, blood, and a kidney allograft that had been resected during a chronic rejection process.
As was noted supra, there was clear TCR CD8 FRET on kidney infiltrating T cells isolated from the kidney allograft. These T cells released IFN-γ upon stimulation with allogeneic EBV-B cells, or beads coated with anti-CD3/CD28 antibodies.
Different treatments were not, however, unspecific.

The test system of assay [5] is TILs from ovarian cancer ascites. The assay is described as follows: IFN-γ response of anergic TILs to stimulation. Particulars: overnight incubation with 1 mM LacNAc. The protocol: It was confirmed by the fact that, notwithstanding overnight stimulation with a mixed population of tumor cells, B cells, and macrophages collected from the same ascites, or with allogenic EBV-β cells. IFNγ was not produced.
When these anergic TILs were incubated overnight with 1 mM LacNAc, their IFN-γ response increased more than 10 fold.

Assay [6] concerns tetramer^low CD8TLs. The assay is described as follows: IFN-γ release by tetramer^low CD8TLs treated with galectin-3 binders or neuraminidase. As to conditions: CD8TLs collected 3-4 days after stimulation. As to the method: To test this, tetramer^low CD8TLs, collected 3-4 days after stimulation, as described supra, were treated with LacNAc, a known competitive binder of galectin-3. Release of IFN-γ was restored.
These experiments were repeated testing two other galectin-3 binders, “tri-LacNAc,” and an antibody against the N-terminus of galectin-3.
The experiments described herein, using neuraminidase, were carried out on human CD8TLs, and the results parallel those observed by Kao, et al., Immunol., 17:1607-1617 (2005), on murine cells. It is hypothesized that a sialic acid residue may be present, near the LacNAc motif of galectin-binding proteins, and act to increase galectin-3 affinity.

Assay [7] has as its system CD8+ TILs from gastric carcinoma ascites. The assay is described as follows: TCR CD8 FRET on CD8+ TILs. Particulars: 1 mM LacNAc, 37° C., 5 hours of treatment; compared with tetramer^high CD8TL A10. The protocol:
as §3, §4
These experiments tested the impact of N-acetyllactosamine (LacNAc) on colocalization. Gastric carcinoma ascites were screened for CD8^+ TILs, after they had been incubated for various time periods at 37° C., with 1 mM of LacNAc, and washed. As a control, the line CD8TL A10 was used, two weeks after its last antigenic stimulation.

Setting [8] is: swainsonin 0.5 μM added on day 0 before restimulation, read at day 4.

For `OC[C@H]1O[C@@H](O[C@H]2[C@H](O)[C@@H](O)C(O)O[C@@H]2CO)[C@H](O)[C@@H](O)[C@H]1O` (stereo partly shown) [lactose], the “tetramer staining (ability to bind tetramers)” value in assay [1] is listed as “higher degrees of tetramer staining”. The “ability to release IFN-γ upon antigenic stimulation” value in assay [2] is “higher ability to release IFN-γ”. In addition, in assay [3], the “FRET between TCR and CD8 (TCR-CD8 proximity)” value (shortened to “FRET between TCR and CD8”) was “higher FRET efficiencies”.
On to `O[C@H]1[C@H]2[C@H](O)CCCN2C[C@H]1O` [Swainsonin, swainsonin], for which the tetramer staining result in assay [1] (setting [8]) was “higher tetramer staining”. Further, the “ability to release IFN-γ when restimulated” value in assay [2] (swainsonin 0.5 μM added on day 0 before restimulation) is reported as “higher ability to release IFN-γ”. Also, in assay [3] (setting [8]), the “FRET efficiency (TCR-CD8)” value was “higher FRET efficiency”.
On to `CC(=O)N[C@H]1C(O)O[C@H](CO)[C@@H](O[C@@H]2O[C@H](CO)[C@H](O)[C@H](O)[C@H]2O)[C@@H]1O` (stereo partly shown) [LacNAc, N-acetyl lactosamine], for which, in assay [4], the “IFN-γ production of kidney infiltrating T cells” value was “did not result in increased IFN-γ production”. Besides, in assay [1], the “tetramer staining (ability to bind tetramers)” value is “higher degrees of tetramer staining”. Moreover, the “ability to release IFN-γ upon antigenic stimulation” value in assay [2] was “higher ability to release IFN-γ”. Moreover, the “increase of IFN-γ response to antigen stimulation” value in assay [5] was “more than 10 fold”. Further, the “release of IFN-γ by tetramer^low CD8TLs” value in assay [6] is recorded as “restored”. Also, the “FRET between TCR and CD8” value in assay [3] is “higher FRET efficiencies”. In addition, the “TCR CD8 FRET on TILs” value in assay [7] was “recovered the same level of TCR CD8 FRET”.
Consider `c1cnc2c(c1)ccc1cccnc12` [o-phenantholin], for which, in assay [1], the “tetramer staining (ability to bind tetramers)” value is “regained”. The “ability to release IFN-γ upon antigenic stimulation” value in assay [2] is given as “regained”. Further, in assay [3], the “FRET between TCR and CD8” value is on record as “regained FRET exchanges between the 2 molecules”.
Consider `OC[C@H]1O[C@@](CO)(O[C@H]2O[C@H](CO)[C@@H](O)[C@H](O)[C@H]2O)[C@@H](O)[C@@H]1O` [Sucrose, sucrose], for which, in assay [1], the “tetramer staining (ability to bind tetramers)” value is on record as “no effect”. In addition, in assay [2], the “ability to release IFN-γ upon antigenic stimulation” value is “no effect”. Besides, the “FRET between TCR and CD8” value in assay [3] is given as “no effect”.
